Data set [1] relates to A2058 (human metastatic melanoma cells, Rb-negative). Put plainly: Cellular proliferation assay (CellTiter-Glo), A2058. The note with it: A2058, 144 h, cell viability after six days. It is filed as cell-based. Here is the method: (§1) Further cellular proliferation assays were conducted using the following cancer cell lines: MCF7 (breast adenocarcinoma—Rb-positive), ZR-75-1 (breast ductal carcinoma—Rb-positive), H69 (human small cell lung cancer—Rb-negative) cells, or A2058 (human metastatic melanoma cells—Rb-negative). These cells were seeded in Costar (Tewksbury, Massachusetts) 3093 96 well tissue culture treated white walled/clear bottom plates. Cells were treated with the compounds of Table 1 as nine point dose response dilution series from 10 uM to 1 nM. Cells were exposed to compounds and then cell viability was determined after either four (H69) or six (MCF7, ZR75-1, A2058) days as indicated using the CellTiter-Glo® luminescent cell viability assay (CTG; Promega, Madison, Wisconsin, United States of America) following the manufacturer's recommendations. Plates were read on BioTek (Winooski, Vermont) Syngergy2 multi-mode plate reader. The Relative Light Units (RLU) were plotted as a result of variable molar concentration and data was analyzed using Graphpad (LaJolla, California) Prism 5 statistical software to determine the EC50 for each compound.

For another data set, the system named is HS68 cells. Put plainly: G1 arrest (cellular G1 and S-phase) assay, propidium iodide flow cytometry. Particulars: Homo sapiens, Hs68, HS68 cells. Format: cell-based, human. The procedure: HS68 cells (human skin fibroblast cell line (Rb-positive)) were stained with propidium iodide staining solution and run on Dako Cyan Flow Cytometer. The fraction of cells in G0-G1 DNA cell cycle versus the fraction in S-phase DNA cell cycle was determined using FlowJo 7.2.2 analysis.
The compounds listed in Table 1 were tested for their ability to arrest HS68 cells at the G1 phase of the cell cycle.

The subject of data set [2] is ZR-75-1 (breast ductal carcinoma, Rb-positive). Put plainly: Cellular proliferation assay (CellTiter-Glo), ZR-75-1. Format: cell-based. Particulars: Homo sapiens, ZR-75-1, 144 h, cell viability after six days, read-out: ZR75-1 Cellular EC50. The procedure:
as §1

The target of the next data set is CDK4/CyclinD1 (Homo sapiens, UniProt P11802). Put plainly: CDK4/cyclinD1 kinase assay (Nanosyn, Caliper microfluidic kinase detection). Format: biochemical. Particulars: Table 2; 12-point dose-response, ATP at Km (200 μM), 10 hr; read-out: CDK4/CycD1 IC50. Here is the method:
The assays were performed using microfluidic kinase detection technology (Caliper Assay Platform). The compounds were tested in 12-point dose-response format in singlicate at Km for ATP. Phosphoacceptor substrate peptide concentration used was 1 μM for all assays and Staurosporine was used as the reference compound for all assays. Specifics of each assay are as described below:
CDK4/CyclinD1: Enzyme concentration: 1 nM; ATP concentration: 200 μM; Incubation time: 10 hr.

For data set [3], the system named is MCF7 (breast adenocarcinoma, Rb-positive). Put plainly: Cellular proliferation assay (CellTiter-Glo), MCF7. It is filed as cell-based. The note with it: Homo sapiens, MCF7, 144 h, cell viability after six days. The procedure:
as §1

The subject of data set [4] is H69 (human small cell lung cancer, Rb-negative) cells. Put plainly: Cellular proliferation assay (CellTiter-Glo), H69. Format: cell-based. Particulars: NCI-H69, 96 h, cell viability after four days. The procedure: as §1
The subject of data set [5] is small cell lung cancer cell lines. Particulars: Hamilton et al., cited from earlier work; for cytotoxic / chemosensitizing effect in combination with various camptothecin derivatives (in words): Molecules (2014), rubitecan, 9AC, topotecan, SN38, CPT109.
For data set [6], the system named is NCI-H69 SCLC xenograft (Rb-negative). It is filed as in vivo. From the text:
An Rb-negative model of small cell lung cancer was used in the following example. Briefly, xenografts of National Cancer Institute (NCI) […] cells were grafted onto the mice (Athymic Nude (Crl:NU(NCr)-Foxn1^nu); 6-12 week old females) using the South Texas Accelerated Research Therapeutics (START) Cell-Based Xenograft (START-CBX) tumor model. H69 cells are human small cell lung cancer cells and are Rb-negative.
Data collected from the efficacy study included animal weights, observations and tumor dimensions. This information was used to determine agent tolerability based on weight change and gross physiologic changes and anticancer activity based on tumor growth delay or regression. The designated endpoint for this study was an individual tumor volume of 1 cm^3 or 60 days following treatment initiation.
Tumor fragments from NCI-H69 were harvested from host animals and implanted into immune-deficient mice and the study initiated at a mean tumor volume of approximately 150-250 mm^3.
Additional details of the study are outlined in Table 6 below. […] Tumor size was examined twice per week and the endpoint for this study was Day 59.

The nature of data set [7]: Mouse pharmacokinetics (oral gavage / intravenous). Format: in vivo, mice. The note with it: for AUC 0-inf (uM * h) i.v.: 10 mg/kg intravenous injection; for AUC (uM * h) p.o. / Cmax / Tmax (h) p.o. / t1/2 (h) p.o.: 30 mg/kg oral gavage.
Setting [8] is: Group 6: Compound T vehicle and topotecan 0.6 mg/kg IP qdx5x4.

Bounds are passed on as bounds.

Chain of CDK4/CyclinD1 (P11802 whole entry, species assumed): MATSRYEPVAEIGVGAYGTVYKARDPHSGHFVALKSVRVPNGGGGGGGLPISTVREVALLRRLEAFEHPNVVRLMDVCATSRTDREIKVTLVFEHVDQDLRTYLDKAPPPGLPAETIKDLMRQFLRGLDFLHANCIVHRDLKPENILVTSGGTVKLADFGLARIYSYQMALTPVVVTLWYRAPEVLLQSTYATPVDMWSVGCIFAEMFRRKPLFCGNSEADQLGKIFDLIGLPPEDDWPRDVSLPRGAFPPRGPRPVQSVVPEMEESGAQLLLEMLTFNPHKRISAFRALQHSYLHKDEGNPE
Chain of CDK4/CyclinD1 (P24385 whole entry partner, species assumed): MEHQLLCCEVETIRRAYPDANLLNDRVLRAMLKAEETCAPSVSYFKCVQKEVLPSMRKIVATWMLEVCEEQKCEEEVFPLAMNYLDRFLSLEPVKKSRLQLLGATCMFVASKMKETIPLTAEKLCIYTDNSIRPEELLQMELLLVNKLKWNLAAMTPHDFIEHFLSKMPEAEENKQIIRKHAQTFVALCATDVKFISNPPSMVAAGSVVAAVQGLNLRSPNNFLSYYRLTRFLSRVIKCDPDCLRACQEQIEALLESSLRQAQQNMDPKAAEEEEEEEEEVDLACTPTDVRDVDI

As for `C[C@H]1CN(c2ccc(Nc3ncc4cc5n(c4n3)C3(CCCCC3)CNC5=O)nc2)CCN1C` [R], the EC50 was 2630 nM in data set [1]; 70 nM in the data set with HS68 cells; 50 nM in [2]; 36 nM in data set [3]; greater than 3000 nM in data set [4]. Also, the IC50 at CDK4/CyclinD1 was found to be 0.5 nM.

With `CC1(C)CN(c2ccc(Nc3ncc4cc5n(c4n3)C3(CCCCC3)CNC5=O)nc2)CCN1` [I], the EC50 in [1] was 1060 nM; with HS68 cells it was 80 nM; in data set [2], 40 nM; in [3], 61 nM; in [4], 2950 nM. For the same compound, at CDK4/CyclinD1, the IC50 came to 2 nM.

Regarding `C[C@@H]1CN(c2ccc(Nc3ncc4cc5n(c4n3)C3(CCCCC3)CNC5=O)nc2)C[C@H](C)N1` [P], the EC50 was greater than 3000 nM in [1]; 30 nM in the data set on HS68 cells; 43 nM in [2]; 60 nM in [3]; greater than 3000 nM in [4]. Further, the IC50 at CDK4/CyclinD1 stood at 3.3 nM.

For the compound `CC1(C)CN(c2ccc(Nc3ncc4cc5n(c4n3)C3(CCCCC3)CNC5=O)nc2)CCN1CC1CC1` [H], the EC50 was found to be 1310 nM in data set [1]; 85 nM in the data set on HS68 cells; 120 nM in data set [2]; 85 nM in data set [3]; 2040 nM in data set [4]. Besides, the IC50 at CDK4/CyclinD1 came to 1.5 nM.

With `O=C1NCC2(CCCCC2)n2c1cc1cnc(Nc3ccc(N4CCC(N5CCCCC5)CC4)cn3)nc12` [N], the EC50 is 1440 nM in data set [1]; 25 nM in the data set on HS68 cells; 24 nM in data set [2]; 28 nM in [3]; greater than 3000 nM in [4]. Further, the IC50 on CDK4/CyclinD1 was found to be 1 nM.

Take `CC(C)C1CN(c2ccc(Nc3ncc4cc5n(c4n3)C3(CCCCC3)CNC5=O)nc2)CCN1` (stereo not shown) [E]: the EC50 in [1] worked out at 1370 nM; with HS68 cells, 75 nM; in data set [2] it was 62 nM; in data set [3] it was 53 nM; in data set [4] it was 2580 nM. For the same compound, the IC50 on CDK4/CyclinD1 turned out to be 1 nM.

In the case of `CC(C)N1CCN(C(=O)c2ccc(Nc3ncc4cc5n(c4n3)C3(CCCCC3)CNC5=O)nc2)CC1` [II], the EC50 was greater than 3000 nM in [1]; 40 nM in the data set with HS68 cells; 33 nM in [2]; 94 nM in data set [3]; greater than 3000 nM in data set [4]. At CDK4/CyclinD1, the IC50 was 2 nM.

Turning to `C[C@@H]1CN(c2ccc(Nc3ncc4cc5n(c4n3)C3(CCCCC3)CNC5=O)nc2)CCN1C[C@@H](C)O` [J], the EC50 in [1] is greater than 3000 nM; in the data set on HS68 cells, 110 nM; in data set [2], 82 nM; in [3], 70 nM; in data set [4] it was greater than 3000 nM.

Take `CN(C)C1CCN(c2ccc(Nc3ncc4cc5n(c4n3)C3(CCCCC3)CNC5=O)nn2)CC1` [SS]: the EC50 in data set [1] was found to be 1660 nM; with HS68 cells, 80 nM; in data set [2], 53 nM; in [3], 94 nM; in data set [4] it was 2950 nM. Also, the IC50 on CDK4/CyclinD1 came to 0.8 nM.

With `CC[C@H](CO)Nc1nc(NCc2ccccc2)c2ncn(C(C)C)c2n1` [roscovitine], the “cytotoxic effect in combination with topotecan (in words)” value in [5] (Journal of Cancer Therapy (2013)) is on record as “synergistic cytotoxic effect”. The “cytotoxic / chemosensitizing effect in combination with various camptothecin derivatives (in words)” value in data set [5] was “synergistic cytotoxic effect”.

Regarding `CCOCCN1CCN(c2ccc(Nc3ncc4cc5n(c4n3)C3(CCCC3)CNC5=O)nc2)CC1` [MMM], the EC50 is greater than 3000 nM in data set [1]; 200 nM in the data set on HS68 cells; 141 nM in data set [2]; 134 nM in data set [3]; greater than 3000 nM in data set [4].

`CC(=O)c1c(C)c2cnc(Nc3ccc(N4CCNCC4)cn3)nc2n(C2CCCC2)c1=O` [PD0332991, palbociclib]: in [5], the “cytotoxic / chemosensitizing effect in combination with various camptothecin derivatives (in words)” value is reported as “low chemosensitizing activity”.

For `CC[C@@]1(O)C(=O)OCc2c1cc1n(c2=O)Cc2cc3c(CN(C)C)c(O)ccc3nc2-1` [topotecan, reference compound], the “activity toward NCI-H69 xenografts / tumor volume (in words)” value in data set [6] (Compound T alone 100 mg/kg, topotecan 0.6 mg/kg, combination with each Compound T dose (100, 50 or 10 mg/kg), FIG. 16) is “active and reduced tumor volumes”. Moreover, in [6] (setting [8]), the “CR (tumor volume < 15 mm^3)” value is on record as 0, the “LTS (individual tumor volume < volume endpoint at study time endpoint)” value was 1, the “MTTE ± SD (timepoint in days to reach designated tumor volume or time endpoint)” value is given as 52 ± 7 days and the “PR (%) (tumor volume ≥ 50% regression versus Day 0)” value was 0%. In data set [6] (setting [8]), the “T-C (difference in days between MTTE of treatment and control groups)” value amounted to 34 days; the “TFS (complete responder at study endpoint)” value turned out to be 0. Also, the “survival versus vehicle or Compound T only (in words)” value in data set [6] (topotecan 0.6 mg/kg, with or without Compound T, FIG. 15) is recorded as “survived significantly longer than mice treated with vehicle or Compound T only”.

On to `CC1CN(c2ccc(Nc3ncc4cc5n(c4n3)C3(CCCCC3)CNC5=O)nc2)CC(C)N1CC1CC1` (stereo not shown) [OO], for which the EC50 in [1] was greater than 3000 nM; in the data set on HS68 cells, 95 nM; in data set [2] it was 229 nM; in data set [3], 120 nM; in data set [4] it was greater than 3000 nM.

Take `C[C@@H]1CN(c2ccc(Nc3ncc4cc5n(c4n3)C3(CCCCC3)CNC5=O)nc2)CCN1` [V]: the EC50 in data set [1] was 1350 nM; in the data set with HS68 cells, 70 nM; in data set [2], 29 nM; in [3], 50 nM; in data set [4], greater than 3000 nM. In addition, the IC50 at CDK4/CyclinD1 was 2.9 nM.

On to `O=C1NCC2(CCCCC2)n2c1cc1cnc(Nc3ccc(N4CCNCC4)cn3)nc12` [Compound Q], for which, in data set [7], the “AUC 0-inf (uM * h) i.v.” value amounted to 0.95 µM·h. Further, in [7], the “AUC (uM * h) p.o.” value was 0.15 µM·h. Also, in [7], the peak level (Cmax) was 0.16 µM. In addition, the “Tmax (h) p.o.” value in [7] stood at 0.5 h. In data set [7], the “t1/2 (h) p.o.” value was determined as 0.8 h. For the same compound, the EC50 in data set [1] was 2610 nM; in the data set on HS68 cells it was 100 nM; in data set [2] it was 35 nM; in [3], 49 nM; in data set [4] it was greater than 3000 nM.

In the case of `CN1CCN(c2ccc(Nc3ncc4cc5n(c4n3)C3(CCCCC3)CNC5=O)nc2)CC1(C)C` [D], the EC50 stood at 1670 nM in data set [1]; 50 nM in the data set on HS68 cells; 46 nM in [2]; 57 nM in data set [3]; 2910 nM in [4]. Also, the IC50 on CDK4/CyclinD1 is 0.9 nM.

Take `O=C1NCC2(CCCCC2)n2c1cc1cnc(Nc3ccc(N4CCC(N5CCOCC5)CC4)cn3)nc12` [Compound U]: in data set [7], the “AUC 0-inf (uM * h) i.v.” value was 0.76 µM·h. The “AUC (uM * h) p.o.” value in data set [7] was determined as 3.3 µM·h. In addition, in [7], the Cmax turned out to be 4.2 µM. Moreover, in [7], the “Tmax (h) p.o.” value was 0.5 h. Moreover, the “t1/2 (h) p.o.” value in data set [7] (30 mg/kg) was found to be 3 h. Moreover, the EC50 was greater than 3000 nM in [1]; 25 nM in the data set on HS68 cells; 59 nM in data set [2]; 70 nM in data set [3]; greater than 3000 nM in data set [4].

For `CCN(CC)C1CCN(c2ccc(Nc3ncc4cc5n(c4n3)C3(CCCCC3)CNC5=O)nc2)CC1` [CC], the EC50 was greater than 3000 nM in data set [1]; 90 nM in the data set on HS68 cells; 38 nM in data set [2]; 50 nM in [3]; greater than 3000 nM in data set [4]. For the same compound, the IC50 at CDK4/CyclinD1 is 1.6 nM.

For `C[C@@H]1CN(c2ccc(Nc3ncc4cc5n(c4n3)C3(CCCCC3)CNC5=O)nc2)C[C@H](C)N1C[C@@H](C)O` [MM], the concentration for a half-maximal effect (EC50) was greater than 3000 nM in data set [1]; 100 nM with HS68 cells; 77 nM in data set [2]; 73 nM in data set [3]; greater than 3000 nM in data set [4]. The IC50 at CDK4/CyclinD1 stood at 1.8 nM.

Values taken from patent US12285431B2, “Treatment of Rb-negative tumors using topoisomerase inhibitors in combination with cyclin dependent kinase 4/6 inhibitors” (G1 Therapeutics, Inc., priority 2014, dated 2025).
